Experimental data from PMC5993640 (European journal of medicinal chemistry, 2018).
“And” between values parts separate entries of the source, which are not always exact repeats. Equal entries are not always repeated. Where two headings read alike, the source gives them in different places.

Key:
[1] = tested on: HIV-1HXB2; format: cell-based
[2] = tested on: TZM-bl cells; experiment: Cytotoxicity in TZM-bl cells; format: cell-based; conditions: read-out: Toxicity CC50 (TZM-bl)
[3] = tested on: MT-2 cells; experiment: Cytotoxicity in MT-2 cells; format: cell-based; conditions: read-out: Toxicity CC50 (MT-2)
[4] = tested on: HIV-1HXB2 WT and Env gp120 mutated pseudoviruses; experiment: microbe, parasite or virus in culture; format: cell-based; conditions: Human immunodeficiency virus 1, U87.CD4.CXCR4
[5] = Aqueous solubility; format: physicochemical; conditions: universal aqueous buffer
[6] = Cytotoxicity in TZM-bl cells; format: cell-based; conditions: human
[7] = tested on: VSV-G; format: cell-based; conditions: U87-CD4-CXCR4 cells
[8] = Cytotoxicity in U87-CD4-CXCR4 cells; format: cell-based; conditions: human
[9] = tested on: HIV-1 mediated cell-cell fusion; experiment: HIV-1 mediated cell-cell fusion inhibition assay; format: cell-based; conditions: HL2/3 effector and TZM-bl target cells
[10] = tested on: HIV-1IIIB; experiment: Multi-cycle infection assay in MT-2 cells
[11] = Plasma protein binding; format: in vitro ADME
[12] = Metabolic stability in human liver microsomes; conditions: 3 μM
[13] = target: hERG potassium channel (Homo sapiens, UniProt Q12809); experiment: hERG channel inhibition, whole-cell patch clamp in HEK293 cells; format: cell-based; conditions: HEK293 cells stably transfected with hERG cDNA
[14] = pH 7.4, Solubility Range when prepared at 500 μM, With 5% DMSO, pH7.4 (first line)
[15] = read-out: HIV-1IIIB IC50, MT-2 cells, multi-cycle, mean ± SD, n=3
[16] = pH 7.4, aqueous solubility, DMSO concentration of 2%

Chain of hERG potassium channel (Q12809 whole entry): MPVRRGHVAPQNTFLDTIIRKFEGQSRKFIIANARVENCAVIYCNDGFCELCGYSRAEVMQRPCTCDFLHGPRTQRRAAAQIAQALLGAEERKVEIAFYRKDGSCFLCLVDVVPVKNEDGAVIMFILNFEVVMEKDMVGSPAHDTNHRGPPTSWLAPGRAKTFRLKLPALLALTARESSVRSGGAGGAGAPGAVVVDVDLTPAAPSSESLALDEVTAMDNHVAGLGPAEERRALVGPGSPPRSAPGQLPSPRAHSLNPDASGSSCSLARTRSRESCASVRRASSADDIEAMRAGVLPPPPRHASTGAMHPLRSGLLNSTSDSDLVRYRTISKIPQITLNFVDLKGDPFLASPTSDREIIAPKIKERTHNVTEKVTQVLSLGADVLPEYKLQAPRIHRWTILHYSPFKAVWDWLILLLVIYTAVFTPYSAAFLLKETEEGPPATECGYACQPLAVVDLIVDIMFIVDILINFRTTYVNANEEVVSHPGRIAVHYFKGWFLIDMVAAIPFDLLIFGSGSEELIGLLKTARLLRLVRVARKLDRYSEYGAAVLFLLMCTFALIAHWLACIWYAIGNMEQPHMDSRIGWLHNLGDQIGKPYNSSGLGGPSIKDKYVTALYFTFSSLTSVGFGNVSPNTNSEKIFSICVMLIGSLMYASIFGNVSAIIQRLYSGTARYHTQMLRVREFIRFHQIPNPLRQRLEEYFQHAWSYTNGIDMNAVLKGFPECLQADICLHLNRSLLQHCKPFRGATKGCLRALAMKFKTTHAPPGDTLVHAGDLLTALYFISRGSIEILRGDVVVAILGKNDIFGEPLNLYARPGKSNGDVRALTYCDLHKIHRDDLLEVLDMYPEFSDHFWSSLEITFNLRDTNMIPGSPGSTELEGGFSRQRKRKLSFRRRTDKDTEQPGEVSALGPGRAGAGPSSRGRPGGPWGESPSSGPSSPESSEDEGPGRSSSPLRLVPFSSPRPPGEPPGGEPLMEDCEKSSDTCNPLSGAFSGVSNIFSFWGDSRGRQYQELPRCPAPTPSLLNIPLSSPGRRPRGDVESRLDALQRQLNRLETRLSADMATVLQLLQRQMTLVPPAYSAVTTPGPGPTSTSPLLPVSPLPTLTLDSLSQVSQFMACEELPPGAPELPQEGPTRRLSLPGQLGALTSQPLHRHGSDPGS

NC[C@H](NC(=O)c1ccc(-c2ccc(C(F)(F)F)cc2)[nH]1)c1nc(CO)cs1 [Compound 49, N-(2-Amino-1-(4-(hydroxymethyl)thiazol-2-yl)ethyl)-5-(4-(trifluoromethyl)phenyl)-1H-pyrrole-2-carboxamide]
fold enhancement in antiviral potency (IC50) after CH2OH switch C5 to C4 ([1]; HIV-1HXB2 in TZM-bl cells, 39 vs NBD-14107, 49 vs 47, 55 vs 53): ~ 3.4 fold

N-(2-Amino-1-(5-(hydroxymethyl)thiazol-2-yl)ethyl)-5-(3,5-difluoro-4-(trifluoromethyl)-phenyl)-1H-pyrrole-2-carboxamide [Compound 58]
CC50 [2]: 23.5 ± 0.5 µM | CC50 [3]: 15.5 ± 0.45 µM

COc1cnc(-n2cnc(C)n2)c2[nH]cc(C(=O)C(=O)N3CCN(C(=O)c4ccccc4)CC3)c12 [BMS-626529, reference compound]
IC50 [4]: ~0.008 µM | solubility at 90 min [5, 14]: 100 µM to 500 µM and 47.3 µg/mL to 237 µg/mL

N-(2-Amino-1-(5-(hydroxymethyl)thiazol-2-yl)ethyl)-5-(3,5-difluoro-4-(trifluoromethyl)-phenyl)-1H-pyrrole-2-carboxamide [Compound 57]
CC50 [2]: 23 ± 0.6 µM | CC50 [3]: 14.3 ± 0.6 µM

NC[C@@H](NC(=O)c1ccc(-c2ccc(C(F)(F)F)cc2)[nH]1)c1ncc(CO)s1 [Compound 48, N-(2-Amino-1-(5-(hydroxymethyl)thiazol-2-yl)ethyl)-5-(4-(trifluoromethyl)phenyl)-1H-pyrrole-2-carboxamide]
CC50 at 72 h [6]: 42.4 ± 1 µM | Control VSV-G IC50 [7]: poorly active | CC50 at 3 days [8]: 46.4 ± 4.7 µM | IC50 HIV-1 mediated cell-cell fusion [9]: active at slightly higher concentration than NBD-556 and 55

N-(2-Amino-1-(5-(hydroxymethyl)oxazol-2-yl)ethyl)-5-(4-chloro-3,5-difluorophenyl)-1H-pyrrole-2-carboxamide [Compound 66]
IC50 ([1]; read-out: HIV-1HXB2 IC50, TZM-bl cells, single-cycle, mean ± SD, n=3): 0.76 ± 0.1 µM | CC50 [2]: 30.9 ± 1.7 µM | CC50 [3]: 44.7 ± 1.5 µM | IC50 [10, 15]: 0.9 ± 0.1 µM

CNC[C@H](NC(=O)c1ccc(-c2ccc(C(F)(F)F)cc2)[nH]1)c1nc(CO)cs1 [Compound 51, N-(1-(4-(Hydroxymethyl)thiazol-2-yl)-2-(methylamino)ethyl)-5-(4-(trifluoromethyl)phenyl)-1H-pyrrole-2-carboxamide]
IC50 ([10]; Human immunodeficiency virus 1, MT2, read-out: HIV-1IIIB IC50): 0.1 µM

NCC(NC(=O)c1ccc(-c2ccc(C(F)(F)F)c(F)c2)[nH]1)c1nc(CO)cs1 (centres unmarked) [Compound 55, N-(2-Amino-1-(4-(hydroxymethyl)thiazol-2-yl)ethyl)-5-(3-fluoro-4-(trifluoromethyl)-phenyl)-1H-pyrrole-2-carboxamide]
Control VSV-G IC50 [7]: poorly active | solubility at 90 min [5, 14]: 100 µM to 500 µM and 42.4 µg/mL to 214 µg/mL | solubility at 90 min [5, 16]: 100 to 500 µM | bound to proteins in human plasma [11]: > 99% | parent compound remaining at 120 min (% of 0 min) [12]: 88.5 to 90.4%

COc1cc(N)c(Cl)cc1C(=O)NC1CCN(CCCOc2ccc(F)cc2)CC1OC (centres unmarked) [Cisapride]
inhibition at 0.09 µM [13]: 85.2 ± 2.3%

N-(2-Amino-1-(5-(hydroxymethyl)oxazol-2-yl)ethyl)-5-(4-chloro-3,5-difluorophenyl)-1H-pyrrole-2-carboxamide [Compound 67]
CC50 [2]: 27.7 ± 0.5 µM | CC50 [3]: 26.5 ± 2 µM | IC50 [10, 15]: 0.8 ± 0.1 µM

NCC(NC(=O)c1ccc(-c2cc(F)c(Cl)c(F)c2)[nH]1)c1nc(CO)cs1 (centres unmarked) [Compound 39, N-(2-Amino-1-(4-(hydroxymethyl)thiazol-2-yl)ethyl)-5-(4-chloro-3,5-difluorophenyl)-1H-pyrrole-2-carboxamide]
Control VSV-G IC50 [7]: poorly active | CC50 at 3 days [8]: 39.3 ± 2.3 µM | IC50 HIV-1 mediated cell-cell fusion [9]: active at slightly higher concentration than NBD-556 and 55 | solubility at 90 min [5, 14]: ~206 µg/mL | solubility at 90 min [5, 16]: 100 to 500 µM | bound to proteins in human plasma [11]: > 99% | parent compound remaining at 120 min (% of 0 min) [12]: 88.5 to 90.4%
